Source: patent US5508301A, “Ketorolac derivatives with considerably reduced gastro-intestinal irritation and ulceration” (Roemmers S.A.I.C.F., priority 1993, dated 1996)
Counter-ions that a name gives are not always drawn. Like-named read-outs stand apart in the source and are kept apart here.

What was measured:
[1] = Comparison tests as regards the undesired side effects, overall statement; details: test not shown in the table; compared with 2-(1-pyrrolidinyl)ethyl ester
rat = details: LD50, species not stated in the sentence itself
[2] = rat, in vivo
in vivo [3] = details: rat, po
in vivo [4] = details: mouse, po, read-out: Acute Toxicity p.o. LD50 (mg/kg) in the mouse
[5] = Antipyretic effect: temperature increase by beer yeast, rectal temperature, oral administration; format: in vivo; details: p.o., rat, rectal temperature 5, 6, 7 and 8 hours after administration, read-out: Antipyretic Effect p.o. of 50
Protocol: (§1) The antipyretic effect was determined by increasing the rat's temperature by means of beer yeast by 20% and the rectal temperature of the rat was measured 5, 6, 7 and 8 hours after the administration. The percentage of increase compared to the comparison sample was measured.

[6] = rat, in vivo; remark: listed apart in the source
Protocol: The ulceration effect was determined in three groups of 6 rats each. […] The ulceration effect was evaluated microscopically by means of an ulceration index which corresponds to the sum of evaluations of each animal, multiplied by the percentage of animals above null, divided by the total number of animals (0=normal; 1=minor haemorrhages; 2=considerable haemorrhages; 3=small ulcus; 4=large ulcus, more than 2 mm; 5=perforated ulcus).
The same animals were examined for the degree of injury probability of stomach tissue by means of a microscopic quantification of different degrees of lesions: no change, haemorrhages, necrosis.

[7] = rat, in vivo; remark: listed apart in the source
[8] = rat, in vivo; remark: listed apart in the source
[9] = Comparison tests as to the pharmacological effect (analgetic/antiphlogistic and antipyretic), overall statement; format: in vivo, rat; details: B compared with A; C compared with pyrrolidine ester
Protocol: The analgetic effect was measured by the test of inhibition of the contortions generated by peritoneal administration of 0.1 ml acetic acid (3%).
The antiinflammatory effect was evaluated by the Paw-Edema method in which carragenin (1%) was used and the percentage of the decrease of the volume increase was measured at the Paw of the rat.
as §1

O=C(c1ccccc1)c1ccc2n1CCC2C(=O)OCCN1CCCCC1 (centres unmarked) [2-(1-piperidinyl)ethyl ester]
undesired side effects, in words [1]: the said advantages will not be obtained

O=C(c1ccccc1)c1ccc2n1CCC2C(=O)OCCN1CCOCC1 (centres unmarked) [2-(4-morpholinyl)ethyl ester]
undesired side effects, in words [1]: the said advantages will not be obtained

O=C(c1ccccc1)c1ccc2n1CCC2C(=O)O (centres unmarked) [A]
acute toxicity, in words (rat): acceptable acute toxicity
acute toxicity, in words (rat; listed as ketorolac trometamole salt): comparable and acceptable
Possibility of Injuries of Stomach Tissue: animals with haemorrhages [2]: 2 animals
Possibility of Injuries of Stomach Tissue: animals with necrosis [2]: 4 animals
Possibility of Injuries of Stomach Tissue: animals without changes [2]: 0 animals
test of possible injuries of stomach tissue, in words [2]: all show haemorrhages or necrosis
LD50 (in vivo [3]): 105 mg/kg
LD50 (in vivo [4]): 118 mg/kg
ED50 [5]: ~3 mg/kg

O=C(c1ccccc1)c1ccc2n1CCC2C(=O)OCCN1CCCC1 (centres unmarked) [B, oxalate of 2-(1-pyrrolidinyl)ethyl ester of ketorolac]
acute toxicity, in words (rat): acceptable acute toxicity
acute toxicity, in words (rat; listed as oxalate of 2-(1-pyrrolidinyl)ethyl ester of ketorolac): comparable and acceptable
Possibility of Injuries of Stomach Tissue: animals with haemorrhages [2]: 0 animals
Possibility of Injuries of Stomach Tissue: animals with necrosis [2]: 0 animals
Possibility of Injuries of Stomach Tissue: animals without changes [2]: 6 animals
test of possible injuries of stomach tissue, in words [2]: all animals remain unchanged
LD50 (in vivo [3]): 235 mg/kg
undesired side effects compared with trometamole salt of ketorolac, in words [6]: considerably less undesired side effects than the trometamole salt of ketorolac
LD50 (in vivo [4]): 93 mg/kg
ED50 [5]: > 3 mg/kg
destruction index of the gastric mucosa, in words [7]: considerably lower than with (A)
ulceration index relative to that detected with (A) [8]: merely one third of that detected with (A)

CCN(CC)CCOC(=O)C1CCn2c(C(=O)c3ccccc3)ccc21 (centres unmarked) [C, maleate of 2-(diethylamino)ethyl ester of ketorolac]
acute toxicity, in words (rat): comparable and acceptable
Possibility of Injuries of Stomach Tissue: animals with haemorrhages [2]: 0 animals
Possibility of Injuries of Stomach Tissue: animals with necrosis [2]: 5 animals
Possibility of Injuries of Stomach Tissue: animals without changes [2]: 1 animals
test of possible injuries of stomach tissue, in words [2]: much greater with the former than with the latter
LD50 (in vivo [4]): 198 mg/kg
ED50 [5]: ~3 mg/kg
pharmaceutical/pharmacological effect (analgetic/antiphlogistic and antipyretic), in words [9]: practically the same
ulceration index relative to that of 2-(1-pyrrolidinyl)ethyl ester [8]: twice as high as that of 2-(1-pyrrolidinyl)ethyl ester
